The values below come from US9850493B2, “Biological methods for preparing a fatty dicarboxylic acid” (VERDEZYNE, INC., priority 2012, dated 2017).

The nature of the assay: In vitro acyl-CoA oxidase activity assay of E. coli lysates. It counts as biochemical, Candida strain ATCC20336. As to conditions: wild type enzyme, FIG. 21. An excerpt:
Acyl-CoA oxidases from a range of organisms were cloned into the E. coli expression vector pET26b (EMD4Biosciences, Darmstadt, Germany), which contains a kanamycin resistance cassette. The source of the acyl-CoA oxidase, the name of the gene, the primers and restriction enzymes used to clone the acyl CoA oxidase coding sequence into pET26b and the coding sequence are described herein. The acyl CoA oxidase coding sequences were amplified by PCR using the appropriate primers designed from cDNA libraries, published cDNA or genomic DNA sequences corresponding to the organism. […]
To express an enzyme, a colony from each transformation of Rosetta cells was used to start a 5 ml overnight culture of LB containing the antibiotics kanamycin (to select for pET26b) and chloramphenicol (to select for a second plasmid found in Rosetta II cells that mediates improved translation of eukaryotic proteins expressed in E. coli) grown at 37° C. The next morning, the overnight culture was used to seed 30 ml of LB containing kanamycin and chloramphenicol to an OD600 reading of 0.1. […]
To test the activity of the acyl CoA oxidase, cells from the overnight induction were pelleted at 1046×g at 4° C. in 50 ml conical tubes. […] The spectrophotometer was set to read for 5 minutes at 500 nm, 30° C. […]

Take “Pox5: wild type acyl CoA oxidase Pox5 from Candida strain ATCC20336”: the “activity on C6 and C8 substrates” value is reported as “low activity”; the “substrate chain length of optimal activity” value lay in the range of 12 to 18 carbons.
